Active and inactive are the calls of the source. The rule behind the calls is not given here.
Test system: CCRIS mutagenicity, Ames/micronucleus/aberration tests
Assay: CCRIS mutagenicity studies
[1] = Test System: AMES SALMONELLA TYPHIMURIUM, Strain/Indicator: TA97, Metabolic Activation: NONE, Method: STANDARD PLATE
[2] = Test System: AMES SALMONELLA TYPHIMURIUM, Strain/Indicator: TA98, Metabolic Activation: NONE, Method: STANDARD PLATE
[3] = Test System: AMES SALMONELLA TYPHIMURIUM, Strain/Indicator: TA98, Metabolic Activation: RAT, LIVER, S-9, AROCLOR 1254, Method: STANDARD PLATE
[4] = Test System: AMES SALMONELLA TYPHIMURIUM, Strain/Indicator: TA100, Metabolic Activation: NONE, Method: STANDARD PLATE
[5] = Test System: AMES SALMONELLA TYPHIMURIUM, Strain/Indicator: TA100, Metabolic Activation: RAT, LIVER, S-9, AROCLOR 1254, Method: STANDARD PLATE
[6] = Test System: AMES SALMONELLA TYPHIMURIUM, Strain/Indicator: TA98, Metabolic Activation: NONE, Method: PREINCUBATION

N=C1C=CC(=C(c2ccc(N)cc2)c2ccc(N)cc2)C=C1
mutagenic call (End Point: IN VITRO CHROMOSOMAL ABERRATIONS, Test System: CHO CELLS, Metabolic Activation: NONE): inactive; negative
mutagenic call (End Point: IN VITRO CHROMOSOMAL ABERRATIONS, Test System: CHO CELLS, Metabolic Activation: RAT, LIVER, S-9, AROCLOR 1254): inactive; negative
mutagenic call [1]: inactive; negative
mutagenic call (Test System: AMES SALMONELLA TYPHIMURIUM, Strain/Indicator: TA97, Metabolic Activation: RAT, LIVER, S-9, AROCLOR 1254, Method: STANDARD PLATE): active; positive
mutagenic call (Test System: AMES SALMONELLA TYPHIMURIUM, Strain/Indicator: TA97A, Metabolic Activation: NONE, Method: STANDARD PLATE): inactive; negative
mutagenic call (Test System: AMES SALMONELLA TYPHIMURIUM, Strain/Indicator: TA97A, Metabolic Activation: RAT, LIVER, S-9, AROCLOR 1254, Method: STANDARD PLATE): inactive; negative
mutagenic call (Test System: AMES SALMONELLA TYPHIMURIUM, Strain/Indicator: TA98, Metabolic Activation: HAMSTER, LIVER, S-9, AROCLOR 1254, Method: STANDARD PLATE): active; positive
mutagenic call [2]: active; positive
mutagenic call [3]: active; positive
mutagenic call (Test System: AMES SALMONELLA TYPHIMURIUM, Strain/Indicator: TA100, Metabolic Activation: HAMSTER, LIVER, S-9, AROCLOR 1254, Method: STANDARD PLATE): active; positive
mutagenic call [4]: active; positive
mutagenic call [5]: active; positive
mutagenic call (Test System: AMES SALMONELLA TYPHIMURIUM, Strain/Indicator: TA1535, Metabolic Activation: HAMSTER, LIVER, S-9, AROCLOR 1254, Method: STANDARD PLATE): inactive; negative
mutagenic call (Test System: AMES SALMONELLA TYPHIMURIUM, Strain/Indicator: TA1535, Metabolic Activation: NONE, Method: STANDARD PLATE): inactive; negative
mutagenic call (Test System: AMES SALMONELLA TYPHIMURIUM, Strain/Indicator: TA1535, Metabolic Activation: RAT, LIVER, S-9, AROCLOR 1254, Method: STANDARD PLATE): inactive; negative
mutagenic call (Test System: AMES SALMONELLA TYPHIMURIUM, Strain/Indicator: TA1537, Metabolic Activation: HAMSTER, LIVER, S-9, AROCLOR 1254, Method: STANDARD PLATE): inactive; negative
mutagenic call (Test System: AMES SALMONELLA TYPHIMURIUM, Strain/Indicator: TA1537, Metabolic Activation: NONE, Method: STANDARD PLATE): inactive; negative
mutagenic call (Test System: AMES SALMONELLA TYPHIMURIUM, Strain/Indicator: TA1537, Metabolic Activation: RAT, LIVER, S-9, AROCLOR 1254, Method: STANDARD PLATE): inactive; negative
mutagenic call (Test System: E. COLI, Strain/Indicator: WP2 UVRA, Metabolic Activation: HAMSTER, LIVER, S-9, AROCLOR 1254, Method: STANDARD PLATE): inactive; negative
mutagenic call (Test System: E. COLI, Strain/Indicator: WP2 UVRA, Metabolic Activation: HAMSTER, LIVER, S-9, Method: STANDARD PLATE): inactive; negative
mutagenic call (Test System: E. COLI, Strain/Indicator: WP2 UVRA, Metabolic Activation: MOUSE, LIVER, S-9, AROCLOR 1254, Method: STANDARD PLATE): inactive; negative
mutagenic call (Test System: E. COLI, Strain/Indicator: WP2 UVRA, Metabolic Activation: MOUSE, LIVER, S-9, Method: STANDARD PLATE): inactive; negative
mutagenic call (Test System: E. COLI, Strain/Indicator: WP2 UVRA, Metabolic Activation: NONE, Method: STANDARD PLATE): inactive; negative
mutagenic call (Test System: E. COLI, Strain/Indicator: WP2 UVRA, Metabolic Activation: RAT, LIVER, S-9, AROCLOR 1254, Method: STANDARD PLATE): inactive; negative
mutagenic call (Test System: E. COLI, Strain/Indicator: WP2 UVRA, Metabolic Activation: RAT, LIVER, S-9, Method: STANDARD PLATE): inactive; negative
mutagenic call (Test System: MOUSE LYMPHOMA, Strain/Indicator: L5178Y (TK+/TK-), Metabolic Activation: NONE, Method: SUSPENSION/PLATE): active; positive
mutagenic call (Test System: MOUSE LYMPHOMA, Strain/Indicator: L5178Y (TK+/TK-), Metabolic Activation: RAT, LIVER, S-9, AROCLOR 1254, Method: SUSPENSION/PLATE): active; positive

O=c1[nH][nH]c(=O)c2cc([N+](=O)[O-])ccc12
mutagenic call (Test System: AMES SALMONELLA TYPHIMURIUM, Strain/Indicator: TA98, Metabolic Activation: HAMSTER, LIVER, S-9, AROCLOR 1254 (30%), Method: PREINCUBATION): active; positive
mutagenic call [6]: active; positive
mutagenic call (Test System: AMES SALMONELLA TYPHIMURIUM, Strain/Indicator: TA98, Metabolic Activation: RAT, LIVER, S-9, AROCLOR 1254 (30%), Method: PREINCUBATION): active; positive
mutagenic call (Test System: AMES SALMONELLA TYPHIMURIUM, Strain/Indicator: TA100, Metabolic Activation: HAMSTER, LIVER, S-9, AROCLOR 1254 (30%), Method: PREINCUBATION): active; positive
mutagenic call (Test System: AMES SALMONELLA TYPHIMURIUM, Strain/Indicator: TA100, Metabolic Activation: NONE, Method: PREINCUBATION): active; positive
mutagenic call (Test System: AMES SALMONELLA TYPHIMURIUM, Strain/Indicator: TA100, Metabolic Activation: RAT, LIVER, S-9, AROCLOR 1254 (30%), Method: PREINCUBATION): inactive; negative

O=C(O)/C=C/c1ccc([N+](=O)[O-])o1
mutagenic call [6]: active; positive

CCOC1=CC(=O)C(NC(C)=O)=CC1=O
mutagenic call [2]: active; positive
mutagenic call [4]: active; positive

O=[N+]([O-])c1cccc2nc3c([N+](=O)[O-])cccc3nc12
mutagenic call (Test System: AMES SALMONELLA TYPHIMURIUM, Strain/Indicator: TA98(NR), Metabolic Activation: NONE, Method: PREINCUBATION): inactive; negative
mutagenic call [6]: inactive; negative

O=C(Nc1ccccc1)C1CO1 (configuration not stated)
mutagenic call (Test System: AMES SALMONELLA TYPHIMURIUM, Strain/Indicator: TA100, Metabolic Activation: MOUSE, LIVER, S-9, AROCLOR 1254, Method: STANDARD PLATE): active; positive
mutagenic call [4]: active; positive

O=C(O)/C(Cl)=C(\C(=O)O)C(Cl)Cl
mutagenic call [1]: inactive; negative
mutagenic call (Test System: AMES SALMONELLA TYPHIMURIUM, Strain/Indicator: TA97, Metabolic Activation: RAT, LIVER, S-9, PHENOBARBITAL, Method: STANDARD PLATE): inactive; negative
mutagenic call [2]: inactive; negative
mutagenic call [3]: inactive; negative
mutagenic call (Test System: AMES SALMONELLA TYPHIMURIUM, Strain/Indicator: TA98, Metabolic Activation: RAT, LIVER, S-9, PHENOBARBITAL, Method: STANDARD PLATE): inactive; negative
mutagenic call [5]: inactive; negative
mutagenic call (Test System: AMES SALMONELLA TYPHIMURIUM, Strain/Indicator: TA100, Metabolic Activation: RAT, LIVER, S-9, PHENOBARBITAL, Method: STANDARD PLATE): inactive; negative
mutagenic call (Test System: AMES SALMONELLA TYPHIMURIUM, Strain/Indicator: TA102, Metabolic Activation: NONE, Method: STANDARD PLATE): inactive; negative
mutagenic call (Test System: AMES SALMONELLA TYPHIMURIUM, Strain/Indicator: TA102, Metabolic Activation: RAT, LIVER, S-9, AROCLOR 1254, Method: STANDARD PLATE): inactive; negative

O=[N+]([O-])c1c2c(c3ccc4cccc5ccc1c3c45)CCCC2
mutagenic call [2]: inactive; negative
mutagenic call [4]: inactive; negative

c1ccc(CN2C3c4ccccc4-c4ccccc4C32)cc1 (configuration not stated)
mutagenic call [4]: active; positive
